Series [1] deals with estrogen related receptor alpha (ERRα) (Homo sapiens, UniProt P11474). The conditions noted are these: FIG. 5. The source says:
[drawing 18] on the degradation of estrogen related receptor alpha (ERRα).

Series [2] concerns the target T1, ERRα (Homo sapiens, UniProt P11474).
T1 sequence (P11474 1-423): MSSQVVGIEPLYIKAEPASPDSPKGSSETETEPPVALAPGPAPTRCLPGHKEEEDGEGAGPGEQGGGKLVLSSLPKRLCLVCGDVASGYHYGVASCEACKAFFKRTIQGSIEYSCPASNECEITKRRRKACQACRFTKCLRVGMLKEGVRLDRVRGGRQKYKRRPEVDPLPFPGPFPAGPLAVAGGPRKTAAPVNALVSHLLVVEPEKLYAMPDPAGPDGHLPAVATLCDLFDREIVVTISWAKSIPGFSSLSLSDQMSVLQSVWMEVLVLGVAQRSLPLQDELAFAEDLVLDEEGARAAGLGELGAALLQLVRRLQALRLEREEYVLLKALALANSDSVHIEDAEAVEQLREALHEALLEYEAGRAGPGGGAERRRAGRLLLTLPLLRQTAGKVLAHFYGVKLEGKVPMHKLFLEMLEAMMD
The series can be described thus: ERRα degradation in ST-486 cells. The series is classed as cell-based. Further details: degration of ERRα in either MCF-7 cells or ST-486 cells; endogenous in cells; host or cells: ST-486. The note with it: ST486, column C, read-out: ERRα Degradation Dmax (Estimated) ST-486 cells. Here is the method: Using the methods as described herein, the following exemplary PROTAC compounds were prepared (see Table below). The exemplary compounds were also assayed for their ability to effectuate the degration of ERRα in either MCF-7 cells or ST-486 cells. Thus, in certain embodiments, the description provides the compounds below, including compositions comprising effective amount of a compound as listed below or a derivative, analog, or a prodrug of the same, in combination with at least one of a pharmaceutically acceptable carrier, another active agent, including a second PROTAC molecule as described herein or a combination thereof. In additional embodiments, the disclosure provides a method of treating a disease or condition in a subject in need thereof, comprising administering a composition comprising an effective amount of a compound listed below, wherein the composition is effective for treating or ameliorating a symptom of the disease or condition.
Legend for following table: A=ERRα Degradation Dmax (Estimated) MCF-7 cells; B=ERRα Degradation DC50 (Estimated) MCF-7 cells; C=ERRα Degradation Dmax (Estimated) ST-486 cells; D=ERRα Degradation DC50 (Estimated) ST-486 cells

Series [3] has as its target VHL (Homo sapiens, UniProt P40337). The series is described as follows: VHL binding (stereocenter inversion). The note with it: inversion of stereocenter(s) of the VHL ligand.
For series [4], the target named is RIPK2 (Homo sapiens, UniProt O43353). The series can be described thus: In vitro RIPK2 ubiquitination, reconstituted ubiquitination cascade. In kind it is biochemical. The note with it: quenched 15 min after initiation, PAGE and autoradiography. As to the method:
Ubiquitination reactions were performed in three stages. In the first stage, RIPK2 (final 500 nM) was incubated for 10 min at room temperature with [^32P]g-ATP in kinase buffer (25 mM Tris pH 7.5, 50 mM KCl, 2 mM Mg(CH3CO2)2, 2 mM MnCl2, 2 mM DTT) to radiolabel RIPK2 through auto-phosphorylation. In the second stage, ubiquitination buffer (25 mM Tris pH 7.5, 5 mM MgCl2, 100 mM NaCl, 2 mM ATP, 0.1 mg/ml BSA, and 2 mM DTT) was added to complete auto-phosphorylation, and then VHL (final 250 nM) and indicated PROTACs (various concentrations) were added to the mixture to allow ternary complex formation. In parallel, UbE1 (final 25 nM), Ubc4 (final 250 nM), and ubiquitin (final 116 μM) were mixed in ubiquitination buffer to allow charging of the E2 enzyme with activated ubiquitin. In stage three of the reaction, the RIPK2-PROTAC-VHL and UbE1-Ubc4˜Ub mixtures were combined, and incubated at room temperature for various times before being quenched with Sample Buffer containing 5% b-mercaptoethanol. Ubiquitinated RIPK2 was then separated by 4-15% SDS-PAGE and imaged using a PhosphoImager Screen overnight.
RIPK2 was labeled by autophosphorylation and then incubated with the indicated concentrations of PROTAC and the reconstituted ubiquitination cascade. Samples were quenched 15 min after initiation of the reaction, and imaged by PAGE and autoradiography. RIPK2-Ubn is indicated.

Series [5] has as its system THP-1 cells. The series is described as follows: Trypan Blue cell viability assay. The series is classed as cell-based. The conditions noted are these: 16 hours. As to the method: FIG. 13 is a cell viability graph illustrating that PROTAC_RIPK2 is not toxic to cells. THP-1 cells were treated with the indicated concentration sof PROTAC_RIPK2 or PROTAC_RIPK2_epi for 16 hours, followed by a Trypan Blue assay to determine cell viability. Error bars represent mean and S.D.

By Dmax is commonly meant the greatest extent of degradation seen.

SMILES strings stand for the structures.

Chain of RIPK2 (O43353 whole entry, species assumed): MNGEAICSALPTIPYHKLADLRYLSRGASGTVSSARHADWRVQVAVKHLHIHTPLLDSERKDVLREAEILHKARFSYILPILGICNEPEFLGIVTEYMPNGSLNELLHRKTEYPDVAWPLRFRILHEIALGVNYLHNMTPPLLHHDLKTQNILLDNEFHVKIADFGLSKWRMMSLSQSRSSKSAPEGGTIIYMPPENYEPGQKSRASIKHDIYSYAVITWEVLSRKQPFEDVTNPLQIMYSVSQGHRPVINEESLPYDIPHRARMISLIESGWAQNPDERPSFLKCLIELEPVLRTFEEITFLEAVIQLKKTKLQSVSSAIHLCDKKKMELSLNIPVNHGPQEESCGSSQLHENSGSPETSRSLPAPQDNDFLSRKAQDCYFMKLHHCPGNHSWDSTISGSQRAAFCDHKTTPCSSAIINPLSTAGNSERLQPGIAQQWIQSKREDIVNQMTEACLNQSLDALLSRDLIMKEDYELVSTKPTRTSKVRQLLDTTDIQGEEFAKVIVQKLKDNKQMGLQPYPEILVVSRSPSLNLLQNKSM
Chain of RIPK2 (P40337 whole entry, species assumed, further chain): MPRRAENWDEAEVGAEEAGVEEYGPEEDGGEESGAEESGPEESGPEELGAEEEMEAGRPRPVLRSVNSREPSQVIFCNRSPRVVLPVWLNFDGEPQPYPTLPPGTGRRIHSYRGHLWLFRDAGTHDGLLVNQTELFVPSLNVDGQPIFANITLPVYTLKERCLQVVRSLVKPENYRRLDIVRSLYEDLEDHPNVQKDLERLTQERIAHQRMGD
Chain of RIPK2 (Q15370 whole entry partner, species assumed): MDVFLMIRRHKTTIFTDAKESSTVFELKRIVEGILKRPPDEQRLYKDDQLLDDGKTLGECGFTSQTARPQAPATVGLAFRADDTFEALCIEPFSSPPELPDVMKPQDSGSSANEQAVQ
Chain of RIPK2 (Q15369 whole entry partner, species assumed): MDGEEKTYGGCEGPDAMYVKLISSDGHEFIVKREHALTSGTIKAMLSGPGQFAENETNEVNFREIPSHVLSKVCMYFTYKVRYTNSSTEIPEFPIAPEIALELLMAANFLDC
Chain of RIPK2 (Q13617 whole entry partner, species assumed): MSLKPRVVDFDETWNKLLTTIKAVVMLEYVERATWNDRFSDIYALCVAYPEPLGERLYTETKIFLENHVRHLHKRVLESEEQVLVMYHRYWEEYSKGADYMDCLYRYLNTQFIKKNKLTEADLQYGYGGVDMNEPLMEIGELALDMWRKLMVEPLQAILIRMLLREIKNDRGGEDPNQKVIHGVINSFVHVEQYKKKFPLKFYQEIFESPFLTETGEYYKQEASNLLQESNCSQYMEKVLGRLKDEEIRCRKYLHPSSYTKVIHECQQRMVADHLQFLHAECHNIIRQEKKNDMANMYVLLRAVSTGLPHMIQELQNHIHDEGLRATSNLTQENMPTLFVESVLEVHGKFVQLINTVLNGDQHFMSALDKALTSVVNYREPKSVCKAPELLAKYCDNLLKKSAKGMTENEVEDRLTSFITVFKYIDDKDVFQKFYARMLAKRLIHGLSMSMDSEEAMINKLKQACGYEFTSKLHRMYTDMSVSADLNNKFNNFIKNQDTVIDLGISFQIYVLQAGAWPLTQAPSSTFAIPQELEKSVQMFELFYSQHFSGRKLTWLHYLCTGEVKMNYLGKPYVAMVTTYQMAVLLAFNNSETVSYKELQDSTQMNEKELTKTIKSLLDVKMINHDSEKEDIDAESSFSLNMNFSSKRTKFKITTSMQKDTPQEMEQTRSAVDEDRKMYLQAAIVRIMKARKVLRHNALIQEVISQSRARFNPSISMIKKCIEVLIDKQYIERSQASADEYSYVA
Chain of RIPK2 (P62877 whole entry partner, species assumed): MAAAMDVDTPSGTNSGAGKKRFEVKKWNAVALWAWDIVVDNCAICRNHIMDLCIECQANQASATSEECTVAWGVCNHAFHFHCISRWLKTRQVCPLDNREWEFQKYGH
Chain of VHL (P40337 whole entry, species assumed): as the sequence (P40337 whole entry, species assumed, further chain) above
Chain of VHL (Q15370 whole entry partner, species assumed): as the sequence (Q15370 whole entry partner, species assumed) above
Chain of VHL (Q15369 whole entry partner, species assumed): as the sequence (Q15369 whole entry partner, species assumed) above

Turning to `COc1cc(/C=C2\SC(=O)NC2=O)ccc1Oc1ccc(C#N)cc1C(F)(F)F`, in series [1], the “effect on the degradation of estrogen related receptor alpha (ERRα)” value was “lack of effect”.
Regarding `COc1cc(/C=C2\SC(=O)N(Cc3ccc(CC(=O)N[C@H](C(=O)N4C[C@H](O)C[C@H]4C(=O)NCc4ccc(-c5scnc5C)cc4)C(C)(C)C)cc3)C2=O)ccc1Oc1ccc(C#N)cc1C(F)(F)F` [ARV N000413], in series [2], the greatest degradation seen (Dmax) is 98%.
Same read-out and setting: to `COc1cc(/C=C2\SC(=O)N(CCOCCC(=O)N[C@H](C(=O)N3C[C@H](O)C[C@H]3C(=O)NCc3ccc(-c4scnc4C)cc3)C(C)(C)C)C2=O)ccc1Oc1ccccc1C(F)(F)F` [ARV N000414] belongs 98%.
In the case of `COc1cc(/C=C2\SC(=O)N(CCOCCC(=O)N[C@H](C(=O)N3C[C@@H](O)C[C@H]3C(=O)NCc3ccc(-c4scnc4C)cc3)C(C)(C)C)C2=O)ccc1Oc1ccc(C#N)cc1C(F)(F)F` [PROTAC_ERRα_epi], the VHL binding entry in series [3] is “abolishes VHL binding”.
In the case of `Cc1ncsc1-c1ccc(CNC(=O)[C@@H]2C[C@@H](O)CN2C(=O)[C@@H](NC(=O)COCCOCCOCCOCCOc2cc3nccc(Nc4ccc5scnc5c4)c3cc2S(=O)(=O)C(C)(C)C)C(C)(C)C)cc1` [PROTAC_RIPK2], in series [4], the “direct RIPK2 ubiquitination in vitro” value is on record as “mediates direct RIPK2 ubiquitination”. Also, the “cell viability (toxicity to cells)” value in series [5] is recorded as “not toxic”.

Source of the values: US10071164B2, “Estrogen-related receptor alpha based protac compounds and associated methods of use” (Yale University, priority 2014, dated 2018).
